Patent US20080171756A1, “N-Substituted Glycine Derivatives: Prolyl Hydroxylase Inhibitors” (priority 2007, published 2008)

Test system: Hep3B cells
Assay: Epo protein produced by Hep3B cell line, ELISA / AlphaLISA
Assay type: cell-based
Conditions: Homo sapiens, 48 hours incubation, 100 micromolar = maximum concentration tested
Experimental: Hep3B cells obtained from the American Type Culture Collection (ATCC) are seeded at 2×10̂4 cells/well in Dulbecco's Modified Eagle Medium (DMEM)+10% FBS in 96-well plates. Cells are incubated at 37deg C./5% CO2/90% humidity (standard cell culture incubation conditions). After overnight adherence, medium is removed and replaced with DMEM without serum containing test compound or DMSO negative control. Following 48 hours incubation, cell culture medium is collected and assayed by ELISA to quantitate Epo protein.
Hep3B cells obtained from the American Type Culture Collection (ATCC) are seeded at 2×10̂4 cells/well in Dulbecco's Modified Eagle Medium (DMEM)+10% FBS in 96-well plates. Cells are incubated at 37deg C./5% CO2/90% humidity (standard cell culture incubation conditions). After overnight adherence, medium is removed and replaced with DMEM with 2% serum containing test compound or DMSO negative control. Following 48 hours incubation, cell culture medium is collected and either frozen for later assay or assayed immediately by AlphaLISA to quantitate Epo protein.

Row | EC50 [µM] | Structure (SMILES)
1 | > 100 | O=C(O)CNC(=O)c1c(O)nc(-c2cccc(C(=O)O)c2)[nH]c1=O [Example 18, 3-(5-{[(Carboxymethyl)amino]carbonyl}-4-hydroxy-6-oxo-1,6-dihydro-2-pyrimidinyl)benzoic acid]
2 | > 100 | O=C(O)CNC(=O)c1c(O)nc(-c2ccccc2Cl)n(Cc2ccccc2)c1=O [Example 30, N-{[2-(2-Chlorophenyl)-4-hydroxy-6-oxo-1-(phenylmethyl)-1,6-dihydro-5-pyrimidinyl]carbonyl}glycine]
3 | > 100 | Cc1cccc(C)c1-c1nc(O)c(C(=O)NCC(=O)O)c(=O)n1Cc1ccc(C(C)(C)C)cc1 [Example 40, N-{[1-{[4-(1,1-Dimethylethyl)phenyl]methyl}-2-(2,6-dimethylphenyl)-4-hydroxy-6-oxo-1,6-dihydro-5-pyrimidinyl]carbonyl}glycine]
4 | > 100 | CC(C)(C)c1ccc(Cn2c(-c3c(Cl)cccc3Cl)nc(O)c(C(=O)NCC(=O)O)c2=O)cc1 [Example 29, N-[(2-(2,6-Dichlorophenyl)-1-{[4-(1,1-dimethylethyl)phenyl]methyl}-4-hydroxy-6-oxo-1,6-dihydro-5-pyrimidinyl)carbonyl]glycine]
5 | > 100 | O=C(O)CNC(=O)c1c(O)nc(-c2c(Cl)cccc2-c2ccccc2)n(Cc2ccccc2Cl)c1=O [Example 56, N-({2-(3-Chloro-2-biphenylyl)-1-[(2-chlorophenyl)methyl]-4-hydroxy-6-oxo-1,6-dihydro-5-pyrimidinyl}carbonyl)glycine]
6 | > 100 | CC(C)(C)c1ccc(Cn2c(-c3c(-c4ccccc4)cccc3-c3ccccc3)nc(O)c(C(=O)NCC(=O)O)c2=O)cc1 [Example 43, N-{[1-{[4-(1,1-Dimethylethyl)phenyl]methyl}-4-hydroxy-6-oxo-2-(1,1′:3′,1″-terphenyl-2′-yl)-1,6-dihydro-5-pyrimidinyl]carbonyl}glycine]
7 | > 100 | CC(C)(C)c1ccc(Cn2c(-c3c(Cl)cc(Cl)cc3Cl)nc(O)c(C(=O)NCC(=O)O)c2=O)cc1 [Example 57, N-{[1-{[4-(1,1-Dimethylethyl)phenyl]methyl}-4-hydroxy-6-oxo-2-(2,4,6-trichlorophenyl)-1,6-dihydro-5-pyrimidinyl]carbonyl}glycine]
8 | > 100 | CC(C)CC(CC(C)C)c1nc(O)c(C(=O)NCC(=O)O)c(=O)n1Cc1ccc(C(C)(C)C)cc1 [Example 48]
9 | > 100 | CC(C)(C)c1ccc(Cn2c(-c3c(Br)cccc3Br)nc(O)c(C(=O)NCC(=O)O)c2=O)cc1 [Example 42, N-[(2-(2,6-Dibromolphenyl)-1-{[4-(1,1-dimethylethyl)phenyl]methyl}-4-hydroxy-6-oxo-1,6-dihydro-5-pyrimidinyl)carbonyl]glycine]
10 | > 100 | CC(C)(C)c1ccc(Cn2c(-c3c(Cl)cccc3-c3ccccc3)nc(O)c(C(=O)NCC(=O)O)c2=O)cc1 [Example 55, N-[(2-(3-Chloro-2-biphenylyl)-1-{[4-(1,1-dimethylethyl)phenyl]methyl}-4-hydroxy-6-oxo-1,6-dihydro-5-pyrimidinyl)carbonyl]glycine]
11 | > 100 | O=C(O)CNC(=O)c1c(O)nc(-c2cccc(C(=O)O)c2)n(Cc2ccccc2)c1=O [Example 26, 3-[5-{[(Carboxymethyl)amino]carbonyl}-4-hydroxy-6-oxo-1-(phenylmethyl)-1,6-dihydro-2-pyrimidinyl]benzoic acid]
12 | > 100 | CC(C)(C)c1ccc(Cn2c(-c3ccccc3-c3ccccc3)nc(O)c(C(=O)NCC(=O)O)c2=O)cc1 [Example 46, N-[(2-(2-Biphenylyl)-1-{[4-(1,1-dimethylethyl)phenyl]methyl}-4-hydroxy-6-oxo-1,6-dihydro-5-pyrimidinyl)carbonyl]glycine]
13 | > 100 | O=C(O)CNC(=O)c1c(O)nc(-c2cccc(C(=O)NCc3ccccc3)c2)n(Cc2ccccc2)c1=O [Example 20, N-{[4-Hydroxy-6-oxo-1-(phenylmethyl)-2-(3-{[(phenylmethyl)amino]carbonyl}phenyl)-1,6-dihydro-5-pyrimidinyl]carbonyl}glycine]
14 | > 100 | CC(C)(C)c1ccc(Cn2c(-c3ccccc3-c3cc(F)cc(F)c3)nc(O)c(C(=O)NCC(=O)O)c2=O)cc1 [Example 47, N-[(2-(3′,5′-Difluoro-2-biphenylyl)-1-{[4-(1,1-dimethylethyl)phenyl]methyl}-4-hydroxy-6-oxo-1,6-dihydro-5-pyrimidinyl)carbonyl]glycine]
15 | > 100 | O=C(O)CNC(=O)c1c(O)nc(-c2ccccc2)[nH]c1=O [Example 2, N-[(4-Hydroxy-6-oxo-2-phenyl-1,6-dihydro-5-pyrimidinyl)carbonyl]glycine]
16 | > 100 | CC(C)(C)c1ccc(Cn2c(-c3ccccc3-c3ccc(C(F)(F)F)cc3)nc(O)c(C(=O)NCC(=O)O)c2=O)cc1 [Example 49, N-({1-{[4-(1,1-Dimethylethyl)phenyl]methyl}-4-hydroxy-6-oxo-2-[4′-(trifluoromethyl)-2-biphenylyl]-1,6-dihydro-5-pyrimidinyl}carbonyl)glycine]
